These results are taken from patent publication US20230043863A1, “HETEROAROMATIC DERIVATIVES FOR USE AS REGULATOR, PREPARATION METHOD THEREFOR AND USE THEREOF” (JIANGSU HANSOH PHARMACEUTICAL GROUP CO., LTD., priority 2018, published 2023).

One assay has as its target T1, JAK3 (Homo sapiens, UniProt P52333).
T1 sequence (P52333 1-1124): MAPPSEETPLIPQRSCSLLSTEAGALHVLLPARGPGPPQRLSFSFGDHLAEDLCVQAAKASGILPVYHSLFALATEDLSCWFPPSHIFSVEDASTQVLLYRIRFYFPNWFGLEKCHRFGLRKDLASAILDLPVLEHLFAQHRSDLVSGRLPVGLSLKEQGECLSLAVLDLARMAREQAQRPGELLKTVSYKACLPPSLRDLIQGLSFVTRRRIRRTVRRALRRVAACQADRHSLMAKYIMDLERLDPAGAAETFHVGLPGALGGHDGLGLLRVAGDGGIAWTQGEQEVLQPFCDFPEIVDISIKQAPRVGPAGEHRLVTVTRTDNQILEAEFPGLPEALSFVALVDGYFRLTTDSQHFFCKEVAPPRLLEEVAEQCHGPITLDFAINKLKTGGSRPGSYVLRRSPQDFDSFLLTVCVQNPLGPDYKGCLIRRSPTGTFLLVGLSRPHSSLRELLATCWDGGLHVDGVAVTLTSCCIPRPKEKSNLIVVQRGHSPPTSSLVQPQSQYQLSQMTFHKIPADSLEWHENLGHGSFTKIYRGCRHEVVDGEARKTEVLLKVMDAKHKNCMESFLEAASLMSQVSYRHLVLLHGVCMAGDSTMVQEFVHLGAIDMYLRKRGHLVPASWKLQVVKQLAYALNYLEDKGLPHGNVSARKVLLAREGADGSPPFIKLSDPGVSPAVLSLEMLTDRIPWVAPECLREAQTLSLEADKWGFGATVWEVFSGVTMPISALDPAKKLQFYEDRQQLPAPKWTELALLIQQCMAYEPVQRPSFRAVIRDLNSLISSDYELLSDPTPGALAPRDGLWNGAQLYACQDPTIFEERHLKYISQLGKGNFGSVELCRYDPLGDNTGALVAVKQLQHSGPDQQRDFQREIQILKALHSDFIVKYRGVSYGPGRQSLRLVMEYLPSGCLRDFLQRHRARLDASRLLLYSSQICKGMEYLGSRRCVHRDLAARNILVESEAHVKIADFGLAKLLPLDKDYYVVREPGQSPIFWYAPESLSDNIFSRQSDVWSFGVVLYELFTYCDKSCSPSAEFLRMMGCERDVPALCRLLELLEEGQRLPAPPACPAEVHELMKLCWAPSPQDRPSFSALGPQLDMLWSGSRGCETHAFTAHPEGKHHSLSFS
As to the kind of experiment: JAK kinase activity inhibition, TR-FRET (JAK3). Type of assay: biochemical. The settings on record: TR-FRET kinase assay. As for the experimental part:
Experimental objective: The objective of this test is to test the inhibitory effect of the compound on JAK kinase activity.
Experimental method: the fluorescence resonance energy transfer (TR-FRET) method was used to test the inhibitory effect of the compound on JAK kinase activity, and the half inhibitory concentration IC50 of the compound on JAK kinase activity was obtained.
Kinase reaction was carried out in a white 384-well plate (PerkinElmer). 1-5 μL of different concentrations of the compound diluted with DMSO and ddH2O was added into each well, and 1-5 μL of the corresponding solvent was added to the positive control wells, followed by addition of 0.1-20 nM JAK kinase solution diluted with 1-5 μL of kinase buffer (HEPES 50-250 mM, MgCl2 5-20 mM, etc.) was added to each well. 1-5 μL of kinase buffer was added to the negative control well. 1-5 μL of substrate mixture containing peptide substrate and ATP was added. The plate was incubated at room temperature for 0.5-5 hours. […], EDTA and detection solution containing labeled antibody was added, and then the plate was incubated at room temperature for another 1-24 hours. The fluorescence signal value at about 620 nm and 665 nm of each well was measured by BioTek Synergy H1 plate reader, and the inhibition rate was calculated by the fluorescence signal value. According to the inhibition rate of different concentrations, the IC50 of the compound was obtained by curve fitting.
The percentage inhibition data of the wells treated with the compound was calculated with the positive control wells (DMSO control wells) and negative control wells (no kinase added) on the plate {% inhibition rate=100-[(test compound value-negative control value)]/(Positive control value-negative control value)×100}. IC50 value was calculated by using GraphPad prism to fit the data of different concentrations and corresponding percentage inhibition rates to a 4-parameter non-linear logic formula.
A general note: Time-resolved FRET reads energy transfer from a long-lived donor to a nearby acceptor.

The subject of assay [1] is JAK-STAT signal pathway of U266 cells. As to the kind of experiment: Inhibition of cellular JAK-STAT signal pathway (STAT3 phosphorylation) in U266 cells. Type of assay: cell-based, human. The note with it: Homo sapiens, U-266, INF-a 1000 U/mL stimulation. An outline of the steps:
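U266 cells (100-300 K/well) preincubated 2 h at room temperature with serially diluted compound, then stimulated 15 min with IFN-α at 1000 U/mL final. After lysis, STAT3 phosphorylation read by LANCE Ultra TR-FRET (Eu antibody 0.5 nM, ULight antibody 5 nM, overnight) at 665 nm; IC50 from 4-parameter fit of inhibition versus DMSO and negative controls.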

pIC50: −log10 of the molar value.

`Cc1cc(Nc2nc(N[C@@H]3C[C@H]4CC[C@@H](C3)N4CCC#N)nc3cc(Cl)ccc23)n[nH]1` [Embodiment 171, 3-((3-exo)-3-((7-chloro-4-((5-methyl-1H-pyrazol-3-yl)amino)quinazolin-2-yl)amino)-8-azabicyclo[3.2.1]oct-8-yl)propionitrile]: the pIC50 (usually the negative decadic logarithm of the IC50, by convention in mol/L) at JAK3 was 7.63; in assay [1], 9.07. With `Cc1cc(Nc2nc(N[C@@H]3C[C@H]4CCC[C@@H](C3)N4C(=O)c3ccccn3)nc3sccc23)n[nH]1` [Embodiment 260, ((3-exo)-3-((4-((5-methyl-1H-pyrazol-3-yl)amino)thieno[2,3-d]pyrimidin-2-yl)amino)-9-azabicyclo[3.3.1]non-9-yl)(pyridin-2-yl)methanone], the results for the pIC50 (at JAK3; in assay [1]) were 8.42 and 8.96, respectively. On to `Cc1cc(Nc2nc(N(C)[C@@H]3C[C@H]4CCC[C@@H](C3)N4C(=O)CN3CCN(C)CC3)nc3sccc23)n[nH]1` [Embodiment 257, 1-((3-exo)-3-(methyl(4-((5-methyl-1H-pyrazol-3-yl)amino)thieno[2,3-d]pyrimidin-2-yl)amino)-9-azabicyclo[3.3.1]non-9-yl)-2-(4-methylpiperazin-1-yl)ethane-1-one], for which the pIC50 at JAK3 is 7.70; in assay [1] it was 8.84. In the same order, the values of `Cc1cc(Nc2nc(N[C@@H]3C[C@H]4CC[C@@H](C3)N4S(=O)(=O)N3CC(C#N)C3)nc3sccc23)n[nH]1` [Embodiment 237, 1-(((3-exo)-3-((4-((5-methyl-1H-pyrazol-3-yl)amino)thieno[2,3-d]pyrimidin-2-yl)amino)-8-azabicyclo[3.2.1]oct-8-yl)sulfonyl)azetindin-3-formonitrile] are 8.44 and 9.25. In the same order, the values of `Cc1cc(Nc2nc(N[C@@H]3C[C@H]4CCC[C@@H](C3)N4C(=O)CN3CCOCC3)nc3sccc23)n[nH]1` [Embodiment 246, 1-((3-exo)-3-((4-((5-methyl-1H-pyrazol-3-yl)amino)thieno[2,3-d]pyrimidin-2-yl)amino)-9-azabicyclo[3.3.1]non-9-yl)-2-morpholinoethane-1-one] are 8.16 and 9.00. Regarding `Cc1cc(Nc2nc(N[C@@H]3C[C@H]4CC[C@@H](C3)N4CCC#N)nc3ccsc23)n[nH]1` [Embodiment 60, 3-((3-exo)-3-((4-((5-methyl-1H-pyrazol-3-yl)amino)thieno[3,2-d]pyrimidin-2-yl)amino)-8-azabicyclo[3.2.1]oct-8-yl)propionitrile], in assay [1], the pIC50 is 8.54.

For the compound `COc1ccc2c(Nc3cc(C)[nH]n3)nc(N[C@@H]3C[C@H]4CC[C@@H](C3)N4CCC#N)nc2c1` [Embodiment 169, 3-((3-exo)-3-((7-methoxyl-4-((5-methyl-1H-pyrazol-3-yl)amino)quinazolin-2-yl)amino)-8-azabicyclo[3.2.1]oct-8-yl)propionitrile], the pIC50 at JAK3 was 7.54; in assay [1] it was 8.03. On the same counts, the results for `Cc1cc(Nc2nc(N[C@@H]3C[C@H]4CC[C@@H](C3)N4S(=O)(=O)N3CC(C#N)C3)nc3cc(Cl)ccc23)n[nH]1` [Embodiment 214] are 6.88 and 7.75. For the compound `Cc1cnc(Nc2cc3ncccc3c(N[C@@H]3C[C@H]4CC[C@@H](C3)N4CCC#N)n2)s1` [Embodiment 1, 3-((3-exo)-3-((7-((5-methylthioazol-2-yl)amino)-1,6-diazanaphthalen-5-yl)amino)-8-azabicyclo[3.2.1]oct-8-yl)propionitrile], the figures for the pIC50 (on JAK3; in assay [1]) were 8.57 and 9.82, respectively. On to `Cc1cc(Nc2nc(N[C@@H]3C[C@H]4CCC[C@@H](C3)N4S(=O)(=O)N3CC(C#N)C3)nc3sccc23)n[nH]1` [Embodiment 238], for which the values for the pIC50 (on JAK3; in assay [1]) were 9.15 and 8.94, respectively. Turning to `Cc1cc(Nc2nc(N[C@@H]3C[C@H]4CCC[C@@H](C3)N4CCC#N)nc3scnc23)n[nH]1` [Embodiment 278, 3-((3-exo)-3-((7-((5-methyl-1H-pyrazol-3-yl)amino)thiazolo[5,4-d]pyrimidin-5-yl)amino)-9-azabicyclo[3.3.1]non-9-yl)propionitrile], the negative-log IC50 (pIC50) at JAK3 is 8.15; in assay [1] it was 9.54. On the same counts, the results for `CNCC(=O)N1[C@@H]2CCC[C@H]1C[C@H](Nc1nc(Nc3cc(C)[nH]n3)c3ccsc3n1)C2` [Embodiment 247, 1-((3-exo)-3-((4-((5-methyl-1H-pyrazol-3-yl)amino)thieno[2,3-d]pyrimidin-2-yl)amino)-9-azabicyclo[3.3.1]non-9-yl)-2-(methylamino)-ethane-1-one] are 8.62 and 8.64.

In the case of `Cc1cc(Nc2nc(N[C@@H]3C[C@H]4CC[C@@H](C3)N4S(=O)(=O)N3CC(C#N)C3)nc3ccccc23)n[nH]1` [Embodiment 213, 1-(((3-exo)-3-((4-((5-methyl-1H-pyrazol-3-yl)amino)quinazolin-2-yl)amino)-8-azabicyclo[3.2.1]oct-8-yl)sulfonyl)azetindin-3-formonitrile], the negative logarithm of the IC50 (pIC50) on JAK3 was 7.90; in assay [1], 7.96. In the same order, the values of `Cc1cc(Nc2nc(N[C@@H]3C[C@H]4CC[C@@H](C3)N4CCC#N)nc3sc(C)cc23)n[nH]1` [Embodiment 277, 3-((3-exo)-3-((6-methyl-4-((5-methyl-1H-pyrazol-3-yl)amino)thieno[2,3-d]pyrimidin-2-yl)amino)-8-azabicyclo[3.2.1]oct-8-yl)propionitrile] are 8.08 and 9.31. `Cc1cc(Nc2nc(N[C@@H]3C[C@H]4CC[C@@H](C3)N4CCC#N)nc3cc(Br)ccc23)n[nH]1` [Embodiment 170, 3-((3-exo)-3-((7-bromine-4-((5-methyl-1H-pyrazol-3-yl)amino)quinazolin-2-yl)amino)-8-azabicyclo[3.2.1]oct-8-yl)propionitrile] had a pIC50 in assay [1] of 8.47.
